Results from patent US20110045101A1, “FUNGICIDAL SUBSTITUTED AZOLES” (E.I. Du Pont De Nemours and Company, priority 2009, published 2011).
Marks after values point to notes of the source that are not given here.

What was measured:
Type in all cases: in vivo
Conditions in all cases: 100 = 100% disease control
[1] = system: Botrytis cinerea; experiment: Test C: tomato Botrytis on tomato seedlings, sprayed the day before inoculation, visual disease rating
Summary of the method: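 Spray to run-off on tomato seedlings; test conc. 200 ppm (≈500 g/ha), some entries 40 ppm. Formulation: acetone 3% of final vol., then acetone/water 50:50 + 250 ppm polyhydric alcohol ester surfactant.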

[2] = system: Alternaria solani; experiment: Test D: tomato early blight, sprayed the day before inoculation, visual disease rating
Summary of the method: (§1)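 Spray suspension: acetone 3% of final volume, then 50/50 acetone/water plus 250 ppm Trem® 014. Applied to run-off on seedlings at 200 ppm (≈500 g/ha); starred entries tested at 40 ppm.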

[3] = system: Septoria nodorum; experiment: Test F: wheat glume blotch on wheat seedlings, sprayed the day before inoculation, visual disease rating
Summary of the method: as §1

[4] = system: Septoria tritici; experiment: Test G: wheat leaf blotch on wheat seedlings, sprayed the day before inoculation, visual disease rating
Summary of the method: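 Wheat seedlings were sprayed with compound suspensions, 200 ppm unless starred (40 ppm). After next-day spore inoculation, plants spent 48 h saturated at 24° C, then 19 days at 20° C, when disease was rated visually.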

[5] = system: Puccinia recondita f. sp. tritici; experiment: Test I: wheat leaf rust on wheat seedlings, sprayed the day before inoculation, visual disease rating
Summary of the method: as §1

[6] = system: Erysiphe graminis f. sp. tritici; experiment: Test J: wheat powdery mildew on wheat seedlings, sprayed the day before inoculation, visual disease rating
Summary of the method: as §1

[7] = 200 ppm, 0 = no control relative to controls
[8] = 40 ppm (marked *), 0 = no control

SMILES	Test G disease control rating [4, 7]	Test C disease control rating ([1]; 200 ppm, 0 = no control)	Test D disease control rating ([2]; 200 ppm, 0 = no control)	Test F disease control rating ([3]; 200 ppm, 0 = no control)	Test G disease control rating ([4]; 200 ppm, 0 = no control)	Test I disease control rating ([5]; 200 ppm, 0 = no control)	Test J disease control rating ([6]; 200 ppm, 0 = no control)	Test C disease control rating [1, 8]	Test D disease control rating [2, 8]	Test F disease control rating [3, 8]	Test I disease control rating [5, 8]	Test J disease control rating [6, 8]	other results
Cc1nn(C)c(-c2c(F)cccc2Cl)c1-c1ccc(Cl)cc1 [compound 61]	60%	–	–	–	–	–	–	–	–	–	–	–	Test C disease control rating [1, 7]: 40%; Test D disease control rating [2, 7]: 0%; Test F disease control rating [3, 7]: 0%; Test I disease control rating [5, 7]: 92%; Test J disease control rating [6, 7]: 99%
Fc1cc(-n2c(Cl)nc(Cl)c2-c2c(F)ccc(F)c2Cl)ccc1Cl [compound 220]	–	98%	99%	0%	97%	99%	100%	–	–	–	–	–	–
COc1cc(F)c(-c2c(Cl)nc(Br)n2-c2ccc(F)cc2)c(F)c1 [compound 144]	100%	–	–	–	–	–	–	–	–	–	–	–	Test C disease control rating [1, 7]: 100%; Test D disease control rating [2, 7]: 100%; Test F disease control rating [3, 7]: 100%; Test I disease control rating [5, 7]: 100%; Test J disease control rating [6, 7]: 100%
Cc1nc(Cl)n(-c2c(F)cc(F)cc2F)c1-c1ccc(Cl)cc1 [compound 446]	–	–	–	–	–	–	–	96* %	100* %	0* %	68* %	91* %	Test G disease control rating [4, 8]: 95* %
Cc1nc(Br)n(-c2c(F)cc(F)cc2F)c1-c1ccc(Cl)cc1 [compound 445]	95%	–	–	–	–	–	–	97* %	100* %	92* %	97* %	98* %	–
CSc1ccc(F)c(-c2c(Cl)nc(C)n2-c2ccc(Cl)cc2)c1F [compound 235]	–	99%	99%	92%	99%	97%	99%	–	–	–	–	–	–
Cc1nc(Br)n(-c2c(F)cccc2F)c1-c1ccc(Cl)cc1 [compound 216]	–	–	–	–	–	–	–	99* %	100* %	0* %	93* %	94* %	Test G disease control rating [4, 8]: 96* %
Fc1cccc(F)c1-n1c(Br)nc(Br)c1-c1ccc(Cl)cc1 [compound 162]	–	–	–	–	–	–	–	88* %	97* %	0* %	23* %	94* %	Test G disease control rating [4, 8]: 93* %
Fc1cc(-n2c(Br)nc(Cl)c2-c2c(F)cccc2Cl)ccc1Cl [compound 203]	–	87%	98%	87%	97%	100%	99%	–	–	–	–	–	–
Fc1cccc(F)c1-n1c(Cl)nc(Cl)c1-c1ccc(Cl)cc1 [compound 150]	–	99%	100%	60%	98%	97%	100%	–	–	–	–	–	–
Fc1ccc(-n2c(Br)nc(Cl)c2-c2c(F)cccc2F)cc1 [compound 72]	97%	–	–	–	–	–	–	–	–	–	–	–	Test C disease control rating [1, 7]: 96%; Test D disease control rating [2, 7]: 100%; Test F disease control rating [3, 7]: 92%; Test I disease control rating [5, 7]: 99%; Test J disease control rating [6, 7]: 100%
CSc1ccc(F)c(-c2c(Cl)ncn2-c2ccc(Cl)cc2)c1F [compound 215]	–	98%	85%	0%	96%	68%	91%	–	–	–	–	–	–
COc1cc(F)c(-c2c(Cl)nc(Cl)n2-c2ccc(F)c(F)c2)c(F)c1 [compound 454]	93%	–	–	–	–	–	–	–	–	–	–	–	Test C disease control rating [1, 7]: 77%; Test D disease control rating [2, 7]: 100%; Test F disease control rating [3, 7]: 33%; Test I disease control rating [5, 7]: 100%; Test J disease control rating [6, 7]: 100%
Cc1nn(C)c(-c2c(F)cc(F)cc2F)c1-c1ccc(Cl)c(F)c1 [compound 71]	2%	–	–	–	–	–	–	–	–	–	–	–	Test C disease control rating [1, 7]: 47%; Test D disease control rating [2, 7]: 33%; Test F disease control rating [3, 7]: 0%; Test I disease control rating [5, 7]: 9%; Test J disease control rating [6, 7]: 56%
Cc1ccc(-n2c(Br)nc(Cl)c2-c2ccc(F)cc2Cl)cc1 [compound 184]	–	99%	100%	0%	97%	100%	100%	–	–	–	–	–	–
COc1cc(F)c(-c2c(Cl)nc(Cl)n2-c2cccc(F)c2)c(F)c1 [compound 257]	–	100%	100%	99%	95%	100%	100%	–	–	–	–	–	–
C=Cc1nc(C)n(-c2ccc(Cl)cc2)c1-c1c(F)cccc1F [compound 217]	–	–	–	–	–	–	–	33* %	57* %	0* %	0* %	0* %	Test G disease control rating [4, 8]: 13* %
Fc1ccc(-n2c(Cl)nc(Cl)c2-c2ccc(F)cc2Cl)cc1 [compound 183]	–	–	–	–	–	–	–	99* %	91* %	0* %	66* %	48* %	Test G disease control rating [4, 8]: 85* %
